Assay results published in US20230265151A1, “GIP/GLP1 CO-AGONIST COMPOUNDS” (priority 2020, published 2023).
Where two headings read alike, the source gives them in different places.

Legend:
Assay type in all cases: cell-based
[1] = biological target: T1, hGCGR (Homo sapiens, UniProt P47871); assay: Functional cAMP formation (HTRF) in HEK-293 clonal cells expressing hGCGR, 0.1% bovine casein, without or with 1.0% human serum albumin; details: cAMP, 37° C.
T1 construct: expressed in transfected cells
Procedure, shortened: (§1)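 Cells were stimulated with peptide for 30 min at 37° C, then lysed in buffer carrying cAMP-d2 and anti-cAMP Eu3+-cryptate for a competitive HTRF read after at least 60 min at room temperature. The 665/620 nm ratio was converted to nM cAMP against a standard curve.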

[2] = biological target: hGLP-1R (Homo sapiens, UniProt P43220); assay: Functional cAMP formation (HTRF) in HEK-293 clonal cells expressing hGLP-1R, 0.1% bovine casein, without or with 1.0% human serum albumin; parameters: expressed in transfected cells; details: for EC50: cAMP, 37° C., 0.1% bovine casein (no human serum albumin), geometric mean; for Emax: percent of maximal response to GLP-1(7-36)NH2
Procedure, shortened: as §1

[3] = biological target: T2, hGIPR (Homo sapiens, UniProt P48546); assay: Functional cAMP formation (HTRF) in HEK-293 clonal cells expressing hGIPR, 0.1% bovine casein, without or with 1.0% human serum albumin; details: for Emax: percent of maximal response to GIP(1-42)NH2; for EC50: cAMP
T2 construct: expressed in transfected cells
T2 sequence (P48546 22-466): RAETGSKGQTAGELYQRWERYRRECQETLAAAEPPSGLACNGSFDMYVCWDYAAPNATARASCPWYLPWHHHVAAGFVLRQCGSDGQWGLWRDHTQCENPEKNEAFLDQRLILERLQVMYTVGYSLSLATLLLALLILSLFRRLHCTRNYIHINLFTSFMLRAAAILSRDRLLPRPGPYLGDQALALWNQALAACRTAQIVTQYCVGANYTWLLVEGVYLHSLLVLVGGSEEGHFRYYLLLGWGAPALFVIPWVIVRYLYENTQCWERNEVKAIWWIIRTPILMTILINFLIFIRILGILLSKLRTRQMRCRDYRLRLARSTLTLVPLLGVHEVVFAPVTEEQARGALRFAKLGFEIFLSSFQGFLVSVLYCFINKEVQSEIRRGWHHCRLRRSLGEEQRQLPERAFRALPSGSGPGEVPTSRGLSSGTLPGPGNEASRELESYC
Procedure, shortened: as §1

T1 sequence (P47871 26-477): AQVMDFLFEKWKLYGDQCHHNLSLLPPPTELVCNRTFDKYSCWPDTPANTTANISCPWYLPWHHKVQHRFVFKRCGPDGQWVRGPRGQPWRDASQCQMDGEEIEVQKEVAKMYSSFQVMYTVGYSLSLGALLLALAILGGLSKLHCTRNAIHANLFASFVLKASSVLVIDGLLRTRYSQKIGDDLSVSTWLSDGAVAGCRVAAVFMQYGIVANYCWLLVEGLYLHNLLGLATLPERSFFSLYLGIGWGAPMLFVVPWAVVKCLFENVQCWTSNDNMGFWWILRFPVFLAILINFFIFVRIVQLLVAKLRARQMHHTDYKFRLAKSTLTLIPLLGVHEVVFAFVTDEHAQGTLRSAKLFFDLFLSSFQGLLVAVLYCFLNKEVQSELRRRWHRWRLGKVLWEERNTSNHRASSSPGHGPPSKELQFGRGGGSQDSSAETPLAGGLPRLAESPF
Sequence of hGLP-1R (P43220 24-463): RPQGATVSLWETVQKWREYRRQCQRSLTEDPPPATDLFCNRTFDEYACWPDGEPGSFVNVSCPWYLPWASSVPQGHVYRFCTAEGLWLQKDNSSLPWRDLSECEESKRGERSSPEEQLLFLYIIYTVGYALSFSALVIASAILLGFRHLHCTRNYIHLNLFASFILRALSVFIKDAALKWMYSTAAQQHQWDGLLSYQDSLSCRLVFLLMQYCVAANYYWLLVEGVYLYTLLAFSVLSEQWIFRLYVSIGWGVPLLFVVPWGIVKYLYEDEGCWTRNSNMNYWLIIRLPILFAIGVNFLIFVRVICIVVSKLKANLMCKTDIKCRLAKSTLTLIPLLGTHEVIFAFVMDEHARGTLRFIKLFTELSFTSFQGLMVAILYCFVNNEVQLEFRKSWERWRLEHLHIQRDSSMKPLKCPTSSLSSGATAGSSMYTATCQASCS

Structure (SMILES) | EC50 ([1]; 0.1% bovine casein (no human serum albumin), geometric mean, read-out: hGCGR EC50, nM (SEM, n)) [nM] | EC50 ([1]; 0.1% bovine casein and 1.0% human serum albumin, geometric mean (SEM, n), read-out: hGCGR EC50, nM (SEM, n)) [nM] | EC50 ([2]; read-out: hGLP-1R EC50, nM (SEM, n)) [nM] | Emax ([3]; HEK293, cAMP, 37° C., 0.1% bovine casein and 1.0% human serum albumin, read-out: hGIPR Emax, % ± SEM) [%] | EC50 ([3]; 37° C., 0.1% bovine casein (no human serum albumin), geometric mean, read-out: hGIPR EC50, nM (SEM, n)) [nM] | EC50 ([3]; 37° C., 0.1% bovine casein and 1.0% human serum albumin, geometric mean (SEM, n), read-out: hGIPR EC50, nM (SEM, n)) [nM] | EC50 ([1]; hGCGR EC50, nM (SEM, n), 0.1% bovine casein (no human serum albumin), geometric mean) [nM] | EC50 ([1]; hGCGR EC50, nM (SEM, n), 0.1% bovine casein and 1.0% human serum albumin, geometric mean (SEM, n)) [nM] | Emax ([2]; HEK293, read-out: hGLP-1R Emax, % ± SEM, cAMP, 37° C., 0.1% bovine casein and 1.0% human serum albumin) [%] | Emax ([2]; HEK293, read-out: hGLP-1R Emax, % ± SEM, cAMP, 37° C., 0.1% bovine casein, arithmetic mean) [%] | EC50 ([2]; hGLP-1R EC50, nM (SEM, n)) [nM] | Emax ([3]; HEK293, read-out: hGIPR Emax, % ± SEM, cAMP, 37° C., 0.1% bovine casein and 1.0% human serum albumin) [%] | Emax ([3]; HEK293, read-out: hGIPR Emax, % ± SEM, cAMP, 37° C., 0.1% bovine casein, arithmetic mean) [%] | EC50 ([3]; hGIPR EC50, nM (SEM, n), 37° C., 0.1% bovine casein (no human serum albumin), geometric mean) [nM]
CC[C@H](C)[C@H](NC(=O)[C@H](CC(C)C)NC(=O)[C@](C)(Cc1ccc(O)cc1)NC(=O)[C@@H](CCC(=O)O)NC(=O)[C@@H](NC(=O)[C@H](Cc1ccccc1)NC(=O)[C@H](CCC(=O)O)NC(=O)C(C)(C)NC(=O)[C@H](CCC(N)=O)NC(=O)[C@H](C)NC(=O)[C@H](CCCCNC(=O)COCCOCCNC(=O)COCCOCCNC(=O)CC[C@H](NC(=O)CCCCCCCCCCCCC(=O)O)C(=O)O)NC(=O)[C@H](CCCN)NC(=O)[C@H](CC(=O)O)NC(=O)[C@H](CC(C)C)NC(=O)[C@](C)(CC(C)C)NC(=O)[C@@H](NC(=O)C(C)(C)NC(=O)[C@H](Cc1ccncc1)NC(=O)[C@H](CC(=O)O)NC(=O)[C@H](CO)NC(=O)[C@@H](NC(=O)[C@](C)(Cc1ccccc1F)NC(=O)[C@@H](NC(=O)CNC(=O)[C@H](CCC(=O)O)NC(=O)C(C)(C)NC(=O)[C@@H](N)Cc1ccc(O)cc1)[C@@H](C)O)[C@@H](C)O)[C@@H](C)CC)[C@@H](C)CC)C(=O)N[C@@H](CCCCNC(=O)COCCOCCNC(=O)COCCOCCNC(=O)CC[C@H](NC(=O)CCCCCCCCCCCCC(=O)O)C(=O)O)C(=O)NCC(=O)NCC(=O)N1CCC[C@H]1C(=O)N[C@@H](CO)C(=O)N[C@@H](CO)C(=O)NCC(=O)N[C@@H](C)C(=O)N1CCC[C@H]1C(=O)N1CCC[C@H]1C(=O)N1CCC[C@H]1C(=O)N[C@@H](CO)C(N)=O [Example 358] | > 10100 | > 9950 | 0.773 | 86.2 | 0.0137 | 2.06 |  |  |  |  |  |  |  | 
CC[C@H](C)[C@H](NC(=O)[C@H](CCCN)NC(=O)[C@H](CC(=O)O)NC(=O)[C@H](CC(C)C)NC(=O)[C@](C)(CC(C)C)NC(=O)[C@@H](NC(=O)C(C)(C)NC(=O)[C@H](Cc1ccncc1)NC(=O)[C@H](CC(=O)O)NC(=O)[C@H](CO)NC(=O)[C@@H](NC(=O)[C@](C)(Cc1ccccc1F)NC(=O)[C@@H](NC(=O)CNC(=O)[C@H](CCC(=O)O)NC(=O)C(C)(C)NC(=O)[C@@H](N)Cc1ccc(O)cc1)[C@@H](C)O)[C@@H](C)O)[C@@H](C)CC)C(=O)N[C@@H](C)C(=O)N[C@@H](CCC(N)=O)C(=O)NC(C)(C)C(=O)N[C@@H](CCC(=O)O)C(=O)N[C@@H](Cc1ccccc1)C(=O)N[C@H](C(=O)N[C@@H](CCCCNC(=O)COCCOCCNC(=O)COCCOCCNC(=O)COCCOCCNC(=O)CC[C@H](NC(=O)CCCCCCCCCOc1ccc(C(=O)O)cc1)C(=O)O)C(=O)N[C@@](C)(Cc1ccc(O)cc1)C(=O)N[C@@H](CC(C)C)C(=O)N[C@H](C(=O)N[C@@H](CCCCNC(=O)COCCOCCNC(=O)COCCOCCNC(=O)COCCOCCNC(=O)CC[C@H](NC(=O)CCCCCCCCCOc1ccc(C(=O)O)cc1)C(=O)O)C(=O)NCC(=O)NCC(=O)N1CCC[C@H]1C(=O)N[C@@H](CO)C(=O)N[C@@H](CO)C(=O)NCC(=O)N[C@@H](C)C(=O)N1CCC[C@H]1C(=O)N1CCC[C@H]1C(=O)N1CCC[C@H]1C(=O)N[C@@H](CO)C(N)=O)[C@@H](C)CC)[C@@H](C)CC [Example 345] |  |  |  |  |  |  | > 9950 | > 9950 | 110 | 105 | 0.285 | 86.8 | 98.9 | 0.0147
